Earlier results on one compound are cited in patent US20230021879A1, “SYNTHESIS OF 3 -RNA OLIGONUCLEOTIDES” (ALNYLAM PHARMACEUTICALS, INC., priority 2019, published 2023).

Each structure is given as a SMILES string.

In the series the target is P-glycoprotein 1 (P-gp) (Homo sapiens, UniProt P08183). Particulars: earlier studies.
Sequence of P-glycoprotein 1 (P-gp) (P08183 whole entry, species assumed): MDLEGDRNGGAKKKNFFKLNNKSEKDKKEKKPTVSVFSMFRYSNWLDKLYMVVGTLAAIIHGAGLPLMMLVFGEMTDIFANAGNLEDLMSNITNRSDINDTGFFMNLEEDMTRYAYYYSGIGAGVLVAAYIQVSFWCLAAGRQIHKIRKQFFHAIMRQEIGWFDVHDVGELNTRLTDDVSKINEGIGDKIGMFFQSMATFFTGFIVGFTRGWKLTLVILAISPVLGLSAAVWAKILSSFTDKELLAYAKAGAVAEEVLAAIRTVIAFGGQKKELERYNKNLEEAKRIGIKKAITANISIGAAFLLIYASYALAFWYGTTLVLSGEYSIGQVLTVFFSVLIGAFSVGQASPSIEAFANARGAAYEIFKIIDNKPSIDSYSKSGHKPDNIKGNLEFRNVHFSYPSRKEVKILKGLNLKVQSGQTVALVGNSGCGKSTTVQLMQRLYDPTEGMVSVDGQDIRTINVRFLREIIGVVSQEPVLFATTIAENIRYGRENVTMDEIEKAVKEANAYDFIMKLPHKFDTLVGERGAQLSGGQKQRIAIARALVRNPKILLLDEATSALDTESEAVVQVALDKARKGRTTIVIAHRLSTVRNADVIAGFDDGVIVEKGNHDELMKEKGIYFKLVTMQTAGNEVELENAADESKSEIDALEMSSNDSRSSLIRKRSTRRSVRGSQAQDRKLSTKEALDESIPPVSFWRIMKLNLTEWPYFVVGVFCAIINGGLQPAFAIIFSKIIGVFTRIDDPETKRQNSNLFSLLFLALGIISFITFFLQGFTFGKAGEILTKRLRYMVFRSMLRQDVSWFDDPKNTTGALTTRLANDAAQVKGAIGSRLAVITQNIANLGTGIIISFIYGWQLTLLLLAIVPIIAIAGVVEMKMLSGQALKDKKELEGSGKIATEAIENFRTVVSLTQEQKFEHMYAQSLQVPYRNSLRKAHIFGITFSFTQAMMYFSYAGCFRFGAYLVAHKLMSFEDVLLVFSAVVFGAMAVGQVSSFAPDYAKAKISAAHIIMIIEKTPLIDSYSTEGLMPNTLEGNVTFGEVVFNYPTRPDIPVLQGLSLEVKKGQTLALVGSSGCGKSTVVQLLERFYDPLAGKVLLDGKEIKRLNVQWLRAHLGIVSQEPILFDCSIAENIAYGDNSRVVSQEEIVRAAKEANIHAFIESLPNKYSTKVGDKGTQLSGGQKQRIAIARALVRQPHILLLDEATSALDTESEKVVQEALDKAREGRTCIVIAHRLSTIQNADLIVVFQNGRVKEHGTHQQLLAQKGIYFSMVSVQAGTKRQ

Regarding `C[C@@H]1O[C@@H](O[C@H]2C[C@](O)(C(=O)CO)Cc3c(O)c4c(c(O)c32)C(=O)c2ccccc2C4=O)[C@H](I)[C@H](O)[C@H]1O` [Annamycin, (7S,9S)-7-(((2R,3R,4R,5R,6S)-4,5-dihydroxy-3-iodo-6-methyltetrahydro-2H-pyran-2-yl)oxy)-6,9,11-trihydroxy-9-(2-hydroxyacetyl)-7,8,9,10-tetrahydrotetracene-5,12-dione], the P-gp substrate status result is reported as “poor substrate”.
